The source of these data is patent US9434686B2, “Deacetylase inhibitors and uses thereof” (President and Fellows of Harvard College, priority 2008, dated 2016).

The assay relates to human multiple myeloma cells. The assay can be described thus: Cell proliferation (Cell TiterGlo) synergy of HDAC inhibitor with bortezomib. The class given is cell-based. The settings on record: two cultures of human multiple myeloma cells, bortezomib 0, 2.5 nM, 5.0 nM. The method, then:
FIG. 7. […] Synergistic effects on cell proliferation were determined by varying concentrations of each HDAC inhibitor in the presence of varied concentrations of the proteasome inhibitor, bortezomib. Two cultures of human multiple myeloma cells were used for this study. Data presented are the IC50 data for the HDAC inhibitor studied (first column) in the presence of increasing concentrations of bortezomib (0, 2.5 nM, or 5.0 nM). The measurement of cell proliferation used is the Cell TiterGlo assay (Promega), which uses bioluminescence to report on ATP content in cultured cells.
In general terms: In ATP-based viability assays light output follows the ATP content of the culture.

As to `O=C(CCCCCCC(=O)Nc1ccc([C@H]2O[C@@H](CSc3nc(-c4ccccc4)c(-c4ccccc4)o3)C[C@@H](c3ccc(CO)cc3)O2)cc1)NO` [tubacin, reference compound], the “Synergy with bortezomib on cell proliferation” value is listed as “most pronounced synergy”.
